Columns and labels:
HOP-92 = test: Antiproliferative activity against human HOP-92 cells assessed as inhibition of cell growth at 10 uM measured after 48 hrs by SRB assay relative to control; format: functional
HCT-116 [1] = test: Antiproliferative activity against human HCT-116 cells assessed as inhibition of cell growth at 10 uM measured after 48 hrs by SRB assay relative to control; format: functional
HCT-15 = test: Antiproliferative activity against human HCT-15 cells assessed as inhibition of cell growth at 10 uM measured after 48 hrs by SRB assay relative to control; format: functional
SF-539 = test: Antiproliferative activity against human SF-539 cells assessed as inhibition of cell growth at 10 uM measured after 48 hrs by SRB assay relative to control; format: functional
UACC-62 = test: Antiproliferative activity against human UACC-62 cells assessed as inhibition of cell growth at 10 uM measured after 48 hrs by SRB assay relative to control; format: functional
NCI/ADR-RES = test: Antiproliferative activity against human NCI/ADR-RES cells assessed as inhibition of cell growth at 10 uM measured after 48 hrs by SRB assay relative to control; format: functional
786-0 = test: Antiproliferative activity against human 786-0 cells assessed as inhibition of cell growth at 10 uM measured after 48 hrs by SRB assay relative to control; format: functional
ACHN = test: Antiproliferative activity against human ACHN cells assessed as inhibition of cell growth at 10 uM measured after 48 hrs by SRB assay relative to control; format: functional
TK-10 = test: Antiproliferative activity against human TK-10 cells assessed as inhibition of cell growth at 10 uM measured after 48 hrs by SRB assay relative to control; format: functional
T47D = test: Antiproliferative activity against human T47D cells assessed as inhibition of cell growth at 10 uM measured after 48 hrs by SRB assay relative to control; format: functional
SK-MEL-5 = test: Antiproliferative activity against human SK-MEL-5 cells assessed as inhibition of cell growth at 10 uM measured after 48 hrs by SRB assay relative to control; format: functional
K562 = test: Antiproliferative activity against human K562 cells assessed as inhibition of cell growth measured after 48 hrs by SRB assay; format: functional
RPMI-8226 = test: Antiproliferative activity against human RPMI-8226 cells assessed as inhibition of cell growth measured after 48 hrs by SRB assay; format: functional
SR = test: Antiproliferative activity against human SR cells assessed as inhibition of cell growth measured after 48 hrs by SRB assay; format: functional
A549 = test: Antiproliferative activity against human A549 cells assessed as inhibition of cell growth measured after 48 hrs by SRB assay; format: functional
HOP-62 = test: Antiproliferative activity against human HOP-62 cells assessed as inhibition of cell growth measured after 48 hrs by SRB assay; format: functional
NCI-H460 = test: Antiproliferative activity against human NCI-H460 cells assessed as inhibition of cell growth measured after 48 hrs by SRB assay; format: functional
NCI-H23 = test: Antiproliferative activity against human NCI-H23 cells assessed as inhibition of cell growth measured after 48 hrs by SRB assay; format: functional
HT-29 = test: Antiproliferative activity against human HT-29 cells assessed as inhibition of cell growth measured after 48 hrs by SRB assay; format: functional
SNB-75 = test: Antiproliferative activity against human SNB-75 cells assessed as inhibition of cell growth measured after 48 hrs by SRB assay; format: functional
SNB-19 = test: Antiproliferative activity against human SNB-19 cells assessed as inhibition of cell growth measured after 48 hrs by SRB assay; format: functional
Malme-3M = test: Antiproliferative activity against human Malme-3M cells assessed as inhibition of cell growth measured after 48 hrs by SRB assay; format: functional
M14 = test: Antiproliferative activity against human M14 cells assessed as inhibition of cell growth measured after 48 hrs by SRB assay; format: functional
MDA-MB-435 = test: Antiproliferative activity against human MDA-MB-435 cells assessed as inhibition of cell growth measured after 48 hrs by SRB assay; format: functional
A498 = test: Antiproliferative activity against human A498 cells assessed as inhibition of cell growth measured after 48 hrs by SRB assay; format: functional
CAKI-1 = test: Antiproliferative activity against human CAKI-1 cells assessed as inhibition of cell growth measured after 48 hrs by SRB assay; format: functional
MCF7 = test: Antiproliferative activity against human MCF7 cells assessed as inhibition of cell growth measured after 48 hrs by SRB assay; format: functional
HCT-116 [2] = test: Cell cycle arrest in human HCT-116 cells assessed as accumulation in G0/G1 phase at IC50 concentration incubated for 48 hrs by propidium iodide staining based flow cytometry analysis (reference value: 42.5 %); format: functional
HCT-116 [3] = test: Cell cycle arrest in human HCT-116 cells assessed as accumulation in S phase phase at IC50 concentration incubated for 48 hrs by propidium iodide staining based flow cytometry analysis (reference value: 41.34 %); format: functional
WI-38 = test: Cell cycle arrest in human WI-38 cells assessed as accumulation in G2/M phase phase at IC50 concentration incubated for 48 hrs by propidium iodide staining based flow cytometry analysis (reference value: 7.16 %); conditions: wi-38, 48 h
HCT-116 [4] = test: Induction of apoptosis in human HCT-116 cells assessed as necrotic cells at IC50 incubated for 48 hrs by annexin-V FITC and propidium iodide staining based flow cytometry analysis (reference value: 0.51 %); format: functional
HCT-116 [5] = test: Induction of apoptosis in human HCT116 cells assessed as up regulation of cytochrome C expression by RT-PCR analysis relative to untreated control; format: functional
HCT-116 [6] = test: Induction of apoptosis in human HCT116 cells assessed as up regulation of caspase-8 expression by RT-PCR analysis relative to untreated control; format: functional
HCT-116 [7] = test: Induction of apoptosis in human HCT116 cells assessed as up regulation of caspase-9 expression by RT-PCR analysis relative to untreated control; format: functional
[8] = read-out: LC50 (the source's name)

COc1ccc(-n2c(=S)sc3c(Cl)nc(C)nc32)c(OC)c1
inhibition at 10 µM (HOP-92): > 50% | inhibition at 10 µM (HCT-116 [1]): > 50% | inhibition at 10 µM (HCT-15): > 50% | inhibition at 10 µM (SF-539): > 50% | inhibition at 10 µM (UACC-62): > 50% | inhibition at 10 µM (NCI/ADR-RES): > 50% | inhibition at 10 µM (786-0): > 50% | inhibition at 10 µM (ACHN): > 50% | inhibition at 10 µM (TK-10): > 50% | inhibition at 10 µM (T47D): > 50% | inhibition at 10 µM (SK-MEL-5): > 50% | GI50 (K562): 1.2 µM | TGI (K562): 3.8 µM | CC50 (K562; [8]): > 100 µM | GI50 (RPMI-8226): 3.47 µM | TGI (RPMI-8226): 14.1 µM | CC50 (RPMI-8226; [8]): > 100 µM | GI50 (SR): 1.41 µM | TGI (SR): 5.5 µM | CC50 (SR; [8]): > 100 µM | GI50 (A549): 4.47 µM | TGI (A549): 15.8 µM | CC50 (A549; [8]): 40.7 µM | GI50 (HOP-62): 2.57 µM | TGI (HOP-62): 7.76 µM | CC50 (HOP-62; [8]): 26.9 µM | GI50 (NCI-H460): 3.09 µM | TGI (NCI-H460): 9.12 µM | CC50 (NCI-H460; [8]): 49 µM | GI50 (NCI-H23): 2.45 µM | TGI (NCI-H23): 5.89 µM | CC50 (NCI-H23; [8]): 57.5 µM | GI50 (HT-29): 2.4 µM | TGI (HT-29): 6.31 µM | CC50 (HT-29; [8]): 57.5 µM | GI50 (SNB-75): 1.95 µM | TGI (SNB-75): 4.27 µM | CC50 (SNB-75; [8]): 9.33 µM | GI50 (SNB-19): 2.4 µM | TGI (SNB-19): 5.37 µM | CC50 (SNB-19; [8]): 17 µM | GI50 (Malme-3M): 2.24 µM | TGI (Malme-3M): 6.17 µM | CC50 (Malme-3M; [8]): 27.5 µM | GI50 (M14): 1.86 µM | TGI (M14): 4.07 µM | CC50 (M14; [8]): 8.91 µM | GI50 (MDA-MB-435): 2.14 µM | TGI (MDA-MB-435): 3.89 µM | CC50 (MDA-MB-435; [8]): 7.24 µM | GI50 (A498): 11.5 µM | TGI (A498): 24 µM | CC50 (A498; [8]): 49 µM | GI50 (CAKI-1): 6.17 µM | TGI (CAKI-1): 19.5 µM | CC50 (CAKI-1; [8]): 45.7 µM | GI50 (MCF7): 3.63 µM | TGI (MCF7): 15.5 µM | CC50 (MCF7; [8]): 87.1 µM | Activity (HCT-116 [2]): 22.42% | Activity (HCT-116 [3]): 30.1% | Activity (WI-38): 12.27% | Activity (HCT-116 [4]): 3.31% | fold change (FC) (HCT-116 [5]): 8.02 | fold change (FC) (HCT-116 [6]): 7.9 | fold change (FC) (HCT-116 [7]): 15.9
